{
  "source": "patent US20090176791A1",
  "about": "“Diaryl Ureas for Treating Pulmonary Hypertension” (BAYER HEALTHCARE AG, priority 2005, published 2009)",
  "tested_on": "monocrotaline-treated rats with pulmonary hypertension",
  "details": "MCT-induced pulmonary arterial hypertension, 10 mg/kg by gavage once daily from day 14 to day 28 after MCT",
  "protocol": "The effects of the compounds and drug combinations according to the invention are tested in vitro on isolated rat pulmonary arteries and in vivo in monocrotaline-treated rats with pulmonary hypertension.\nMale Sprague Dawley rats (250-300 g) are treated with monocrotaline 60 mg/kg subcutaneously (=day 0). On day 14 after monocrotaline injection treatment the compound/combination to be tested is administered. On day 28 hemodynamic parameters, i.e. right ventricular pressure, systemic blood pressure, heart rate, arterial and venous oxygen saturation are measured and compared with untreated control animals.",
  "data": [
    {"smiles": "CNC(=O)c1cc(Oc2ccc(NC(=O)Nc3ccc(Cl)c(C(F)(F)F)c3)cc2)ccn1.Cc1ccc(S(=O)(=O)O)cc1", "note": "[p-toluenesulfonic acid salt of 4{4-[3-(4-chloro-3-trifluoromethylphenyl)-ureido]-phenoxy}-pyridine-2-carboxylic acid methyl amide]", "values": [
      {"measurement": "right ventricle/left ventricle+septum ratio (right ventricular hypertrophy)", "setting": "day 28", "result": "0.26±0.01"},
      {"measurement": "right ventricular systolic pressure", "setting": "measured on day 28, mean±SEM", "result": "36.50±1.50", "unit": "mmHg"}
    ]}
  ]
}
